Legend:
Cryptococcus neoformans = experiment: Multi-organ hNVU chip fungal neuroaffinity with inositol supplementation; type: cell-based; settings: 200 mg/ml inositol added only to liver unit, 1 day after inoculation
Experimental: NSC, PC and EC were seeded in the same manner as described above for fabrication of the hNVU chip system, and 8×10^6 Huh-7 cells/ml encapsulated in a BMEM hydrogel were seeded in a central channel of a liver unit of the multi-organ hNVU chip. CFW-labeled fungal cells were injected through an upper reservoir of the liver unit so that the fungi were not affected by factors secreted from a brain unit. Simultaneously with fungal inoculation, inositol (200 mg/ml, Duchefa, RV Haarlem, Netherlands) was added only to a lower channel of the liver unit.

[1] = system: EC layer of BBB in hNVU chip (NSC-EC-PC/flow group); experiment: BBB permeability response to TNF-α exposure in hNVU chip; type: cell-based, human; settings: 20 ng/ml TNF-α
Experimental: In order to evaluate BBB permeability, the hNVU chip was placed horizontally on the substrate, and both EC and medium channels were filled with PBS to match the surface levels and homogenize the pressure applied to a 3D matrix. […] Vascular permeability was evaluated by the flow rate of the solute across the EC barrier according to the reference method. […] Vascular barrier permeability (Pv) was induced by using the mean intensity of blood vessels (Iv) and tissues (NSC gel, IT) at two different time points t1 and t2, according to Equation 6 calculated by Image J software. Here, Δt, V and Asurface are approximated by the mean morphology of the EC layer in the hNVU chip in the 3D confocal image and represent the time between two images in a selected region of interest, the NSC gel volume, and the surface area of the EC layer, respectively.

Compound | fungal invasion into the liver unit through the EC barrier (Cryptococcus neoformans) | level of neuroaffinity of C. neoformans (Cryptococcus neoformans) | increase of permeability of the EC layer to 70 kDa FITC-dextran [1]
O[C@H]1[C@H](O)[C@@H](O)[C@H](O)[C@@H](O)[C@H]1O [inositol] | did not increase fungal invasion | reduced the level of neuroaffinity | –
TNF-α | – | – | about 2.8 times

From patent US12540297B2, “Microfluidic device for cerebrovascular simulation and high-efficiency blood-brain barrier simulation system comprising same” (CELLARTGEN INC., priority 2018, dated 2026)
